The nature of the data set: gradient 5% acetonitrile 3 min, to 50% in 2 min, to 85% in 15 min, held 3 min, 100 µL/min. The note with it: column: Zorbax Extend-C18 2.1 x 50 mm; eluents: water / acetonitrile, 0.1% formic acid. Summed up:
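Retention times come from adduct peaks that were picked computationally and then checked by hand. The standards, pure and pooled in mixtures of ~100 molecules, were run on a Zorbax Extend-C18 column (2.1 × 50 mm, 1.8 μm) at 100 μL/min with water and acetonitrile, each with 0.1% formic acid. Detection was by quadrupole time-of-flight mass spectrometry in positive and negative ionization mode, with a dead volume of 40 μL and a dwell volume of 900 μL.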
`O=C(Nc1cccc(F)c1)N1CCC(N2CCN(Cc3ccccc3)C2=O)CC1` returned an RP-LC retention time of 827 s.
With `COc1cccc(NC(=O)C2CCN(Cc3cnn(-c4ccccc4)c3-n3cccc3)CC2)c1`, the RP-LC retention time turned out to be 723 s.
Take `CN(C)C(=O)c1cc(=O)[nH]c2c(Cl)cccc12`: the RP-LC retention time stood at 604 s.
The figure for `CCOc1ccc(/C=C2\NC(=S)NC2=O)cc1` is 840 s; for `COc1ccccc1CNC(=O)C1CCN(C(=O)C2Sc3ccccc3NC2=O)CC1` (stereo not given) it is 736 s; for `Cc1nc(-c2ccc(C(=O)NC(C)C)cc2)no1` it is 693 s.
As to `COc1ccc(-c2cn3c(CC(=O)Nc4ccccc4OC)csc3n2)cc1`, the RP-LC retention time was 748 s.
In turn, `COc1cccc(-c2cc3n(n2)CCCN(C(=O)c2ccc(OC)c(OC)c2)C3)c1` had an RP-LC retention time of 654 s.
For `CC1=C(c2ccccc2)S(=O)(=O)N=C1N1CCCN(S(=O)(=O)c2cccnc2)CC1`, the RP-LC retention time was determined as 769 s.
Regarding `CCc1ccc(Oc2cc(N3CCC(C(=O)Nc4ccc(C)c(C)c4)CC3)ncn2)cc1`, the RP-LC retention time amounted to 1160 s.
In turn, `CCNc1nc(C)cc(N2CCN(C(=O)Nc3ccc(Cl)cc3)CC2)n1` registered an RP-LC retention time of 682 s.
Molecule `O=C(CCC1CCCC1)Nc1nc(-c2ccc(F)cc2)cs1` returned an RP-LC retention time of 1210 s.
Consider `O=C(CCc1c(-c2ccc(Br)cc2)nc2ccccn12)NCCc1ccco1`, for which the RP-LC retention time amounted to 678 s.
In turn, `COc1ccc(Cn2nc3c(S(=O)(=O)N4CCCCCC4)cccn3c2=O)cc1F` registered an RP-LC retention time of 941 s.
On to `CCNC(=O)C1CCCN(c2nc3ncn(CC(=O)Nc4ccc5c(c4)CCC5)c(=O)c3s2)C1` (stereo not given), for which the RP-LC retention time came out at 717 s.
Molecule `O=C(Nc1ccc2c(c1)OCCO2)C1CCN(C(=O)c2ccc(-c3noc(C4CC4)n3)cc2)CC1` had an RP-LC retention time of 828 s.
Consider `COc1ccc(Cl)cc1Nc1ccnc2c1c(=O)n(C)c(=O)n2C`, for which the RP-LC retention time was determined as 951 s.
In turn, `CC1=C(c2ccc(F)cc2)S(=O)(=O)N=C1N1CCCN(C(=O)c2ccsc2)CC1` showed an RP-LC retention time of 802 s.
Then `Cc1cc(=O)n(CC(=O)N2CCc3ccccc32)c(N2CCCC2)n1`, with 664 s.
For `COc1ccc(C(=O)N(CCS(=O)(=O)N2CCNCC2)CC2CCCO2)cc1` (stereo not given), the RP-LC retention time worked out at 609 s.
Turning to `CC1CCC(NC(=O)c2sc3ncccc3c2-n2cccc2)CC1` (stereo not given), the RP-LC retention time turned out to be 1200 s.
As for `Cc1ccc(NC(=O)C2CC(=O)N(c3ccc4c(c3)CCN4C(=O)C3CC3)C2)c(C)c1` (stereo not given), the RP-LC retention time came to 805 s.
With `CCCN(CC1CCOC1)S(=O)(=O)c1cc(F)ccc1OC` (stereo not given), the RP-LC retention time was 868 s.
Turning to `CCS(=O)(=O)c1nc2ccc(NS(=O)(=O)c3ccc4c(c3)OCCO4)cc2s1`, the RP-LC retention time is 826 s.
Molecule `COc1ncc(C(=O)NCc2ccc(F)c(Cl)c2)cn1` gave an RP-LC retention time of 756 s.
Molecule `Nc1ccc(-c2nc3ccccc3s2)cc1` gave an RP-LC retention time of 803 s.
The figure for `Cc1ccc(-c2nccn3cc(C(=O)NC4CC4)nc23)cc1` is 803 s; for `Cc1cccc(Sc2nccnc2N2CCC(C(=O)NC3CCCC3)CC2)c1` it is 1040 s.
Consider `CCc1nnc(C2CCN(S(=O)(=O)c3cccnc3)CC2)s1`, for which the RP-LC retention time came out at 652 s.
On to `COc1ccc(OC)c(NC(=O)Cn2cnc3cc4c(cc32)OCCO4)c1`, for which the RP-LC retention time came out at 641 s.
The molecule `O=C(c1csc(S(=O)(=O)N2CCC(C(=O)N3CCOCC3)CC2)c1)N1CCCCCC1` showed an RP-LC retention time of 718 s.
`O=C(NC1CCN(c2cc(-c3ccc(Cl)cc3)[nH]n2)C1)c1ccccc1` (stereo not given) came in with an RP-LC retention time of 712 s.
Take `CC(C)Cn1nc2n(c1=O)CCN(S(=O)(=O)c1cc(F)ccc1F)CC2`: the RP-LC retention time worked out at 802 s.
The molecule `Cc1noc(-c2ccc(-n3cnc(C(=O)NC4CCCCCC4)c3)nc2)n1` showed an RP-LC retention time of 896 s.
For the molecule `CCOc1ccc(NC(=O)Cn2ccc3ccc(-c4nnc(C)o4)cc32)cc1`, the RP-LC retention time stood at 804 s.
With `Cc1nnc2ccc(-c3noc(Cc4ccc(F)cc4)n3)cn12`, the RP-LC retention time was 805 s.
Then `CC(C)c1ccc(S(=O)(=O)N2CCC(c3ccncc3)CC2)cc1`, with 749 s.
Consider `COc1ccc(-c2nc(Cn3ccn4nc(-c5ccc6c(c5)OCO6)cc4c3=O)c(C)o2)cc1`, for which the RP-LC retention time turned out to be 1100 s.
`CCOC(=O)c1cc(C)n(CC(=O)N2CCOCCNC(=O)CC2)c1C`: the RP-LC retention time stood at 652 s.
The molecule `CCN(CC)CCNCc1ccc(-c2ccccc2F)o1` showed an RP-LC retention time of 562 s.
On to `COC(=O)c1cc(S(=O)(=O)N2CCCC2C(=O)Nc2ccc(C)cc2)cn1C` (stereo not given), for which the RP-LC retention time worked out at 869 s.
With `CCCCc1nnc(NC(=O)C2CCN(C(=O)c3ccc(Cl)cc3)CC2)s1`, the RP-LC retention time was determined as 852 s.
In the case of `CC(C)NC(=O)N1CC(c2nc(-c3ccccc3)no2)C2(CCOCC2)C1` (stereo not given), the RP-LC retention time turned out to be 715 s.
The figure for `CCN1CCN(CCNC(=O)Cn2c(=O)n(-c3ccccc3)c3ncccc32)CC1` is 564 s.
`O=C(CN1c2ccc(F)cc2-c2ccccc2S1(=O)=O)Nc1cccnc1` showed an RP-LC retention time of 681 s.
Take `COc1ccccc1-c1nc(COc2cc(C)c3c(C)nn(C)c3n2)c(C)o1`: the RP-LC retention time was determined as 1030 s.
Consider `COc1ccc(-c2cc(N3CCCC(C(=O)Nc4nccs4)C3)ncn2)cc1` (stereo not given), for which the RP-LC retention time turned out to be 582 s.
As to `COc1ccc(NS(=O)(=O)c2cc(-c3cc(C(F)(F)F)on3)sc2C)cc1OC`, the RP-LC retention time was 1020 s.
`CCOC(=O)C1CCN(C(=O)C2CCCN(c3cnc4nccnc4c3)C2)CC1` (stereo not given) registered an RP-LC retention time of 686 s.
Molecule `O=C(NCc1ccc(F)cc1Cl)c1cn2c(n1)CCCC2` displayed an RP-LC retention time of 607 s.
The figure for `CCCN1CCN(C(=O)CN2CCN(C(=O)Nc3ccc(Br)cc3)CC2=O)CC1` is 597 s; for `CSc1cccc2sc(Nc3nc(C)c(C(C)=O)s3)nc12` it is 842 s.
Turning to `Cc1ccccc1-c1nc2cnccn2c1NCCC(=O)NCc1cccs1`, the RP-LC retention time is 649 s.
In the case of `Cc1cc(C)c(NC(=O)C2CCN(S(=O)(=O)c3c(C)nn(-c4ccccc4)c3C)CC2)c(C)c1`, the RP-LC retention time came out at 1010 s.
The figure for `O=C(NC1CCN(Cc2ccccc2)CC1)c1nnc(-c2ccc(S(=O)(=O)N3CCCC3)cc2)o1` is 1190 s; for `COCCn1cc(C(=O)Nc2ccc(Cl)cc2)c2nn(-c3ccccc3)c(=O)c-2c1` it is 1050 s; for `O=C(Cn1c(=O)c2cc(-c3ccco3)nn2c2ncccc21)Nc1ccc(F)c(F)c1` it is 843 s.
On to `Cc1nc(C)c2c(n1)N(Cc1cccc(F)c1)C(=O)CC2`, for which the RP-LC retention time was 666 s.
`CCCN1C(=O)CCc2cc(NS(=O)(=O)c3ccccc3C(=O)OC)ccc21` yielded an RP-LC retention time of 845 s.
Then `Cn1cc(CC(=O)N2CCN(c3ncccn3)CC2)c2ccccc21`, with 720 s; and `Cc1ccc(NS(=O)(=O)c2cc3c4c(c2)CCC(=O)N4CCC3)cc1C`, with 880 s.
On to `O=C(COc1ccc(Cl)cc1Cl)NCC(=O)N1CCOC(c2ccccc2)C1` (stereo not given), for which the RP-LC retention time amounted to 927 s.
On to `COc1cccc(CNC(=O)c2ccc3c(c2)N(C)C(=O)C2CCCCN32)c1` (stereo not given), for which the RP-LC retention time was found to be 842 s.
The figure for `CCN1C(=O)c2cccnc2Sc2cc(NC(=O)c3ccc(Cl)cc3OC)ccc21` is 804 s; for `CCC(=O)N1CCc2cc(N3CC(C(=O)NC(C)c4ccccc4)CC3=O)ccc21` (stereo not given) it is 750 s; for `N#Cc1ccccc1NC(=O)C(=O)NCC1CCN(C(=O)c2ccccc2F)CC1` it is 744 s.
With `COC(=O)c1ccc(NC(=O)CSc2cc(N3CCN(c4ccccc4OC)CC3)ncn2)cc1`, the RP-LC retention time is 970 s.
Consider `CC(=O)N1CCc2cc(N3CC(C(=O)NCC(C)C)CC3=O)ccc21` (stereo not given), for which the RP-LC retention time came to 643 s.
As for `CC(=O)Nc1ccc2c(c1)CN(C(=O)c1c(F)cccc1Cl)C(C(=O)N(C)C)C2` (stereo not given), the RP-LC retention time turned out to be 900 s.
As for `COC(=O)C(NC(=O)N1CCCn2nc(-c3ccc(OC)cc3)cc2C1)c1ccccc1` (stereo not given), the RP-LC retention time came to 758 s.
The figure for `Cc1[nH]c2ccccc2c1C(=O)C(=O)Nc1ccccc1` is 816 s; for `Cc1noc(-c2cccc(OC3CN(C(=O)c4sccc4C)C3)c2)n1` it is 900 s; for `O=C(Nc1cc(-c2cccs2)no1)c1cccc(F)c1` it is 959 s.
`COCc1cc(=O)n(CC(=O)Nc2cccc(Cl)c2)c(N)n1` yielded an RP-LC retention time of 635 s.
Consider `Cc1ccc(Cl)cc1NS(=O)(=O)c1cc(-c2nc(C(C)C)cs2)cs1`, for which the RP-LC retention time was found to be 1230 s.
In the case of `CCCn1nnnc1NCc1ccc(-c2ccc(Br)cc2)o1`, the RP-LC retention time was 957 s.
`Cc1cc(C)cc(N2CC(c3nc(-c4ccc5c(c4)OCO5)no3)CC2=O)c1` (stereo not given) yielded an RP-LC retention time of 1040 s.
The figure for `CCOC(=O)C1CCN(C(=O)CCc2cc3cc(OC)ccc3[nH]c2=O)CC1` is 701 s.
Regarding `CCN(CC)CCCNC(=O)c1noc2c1CCCC2`, the RP-LC retention time worked out at 607 s.
For `CN1C(=O)Cc2cc(C(=O)NC3CCCC3)ccc21`, the RP-LC retention time was found to be 665 s.

Values taken from the METLIN SMRT retention time set (Domingo-Almenara et al. 2019).
